# Earlier results in patent publication US9528030B1, “Cobalt inhibitor combination for improved dishing” (Cabot Microelectronics Corporation, priority 2015, dated 2016).
# Read-outs that look alike come from different tables or passages of the source.
# Settings: n-octanol-water
Structure (SMILES),Azole Compound logP,Azole Compound logP (listed as benzotriazole)
O=C(O)Cc1nnn[nH]1 [1H-Tetrazole-5-acetic acid],−1.54,–
"Nc1n[nH]c(C(=O)O)n1 [3-Amino-1,2,4-triazole-5-carboxylic acid]",−1.51,–
Nc1nnn[nH]1 [5-Aminotetrazole],−0.92,–
"c1ccc2[nH]nnc2c1 [BTA, benzotriazole]",+1.44,1.44
